Experimental data taken from patent US5284834A, “Adenosine functionalized congeners as cardiovascular treating agents for animals and methods for using same” (priority 1992, dated 1994).
“Also recorded” adds a separate entry of the source.

Experiments:
[1] = target: T1, Brain A1-adenosine receptor (Rattus norvegicus, UniProt P25099); experiment: A1-binding assay: antagonism of binding of 1nM [3H]N6-cyclohexyladenosine to rat cerebral cortical membranes; conditions: molar potency ratio derived from Ki values; rat cerebral cortical membranes
T1 construct: -cyclohexyladenosine to rat cerebral cortical membranes; from tissue; host or cells: rat cerebral cortical membranes
T1 sequence (P25099 1-326): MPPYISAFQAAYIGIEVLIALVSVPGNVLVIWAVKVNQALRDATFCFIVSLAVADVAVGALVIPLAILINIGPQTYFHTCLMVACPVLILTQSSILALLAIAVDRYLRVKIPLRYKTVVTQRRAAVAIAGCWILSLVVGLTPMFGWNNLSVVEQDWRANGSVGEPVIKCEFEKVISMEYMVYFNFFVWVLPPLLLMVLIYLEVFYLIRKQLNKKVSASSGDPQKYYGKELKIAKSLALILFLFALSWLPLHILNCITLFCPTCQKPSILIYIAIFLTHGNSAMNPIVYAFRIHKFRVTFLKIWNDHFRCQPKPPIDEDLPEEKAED
Description: (§1) In the present invention there is compared the A1 - and A2 -potencies of a series of long-chain derivatives of adenosine suitable for attachment to "carriers," such as peptides or proteins, and for immobilization to polymeric matrices for affinity chromatography of adenosine receptors. The method employed is a comparison of increasing coronary blood flow via activation of an A2 -adenosine receptor versus an A1 -binding assay in rat brain.
^b Molar potency ratio relative to adenosine, derived from Ki
values for antagonism of binding of 1nM [^3 H]N^6
-cyclohexyladenosine to rat cerebral cortical membranes.
(§2) The potencies at A2 -receptors (Table 1) are expressed as a molar potency ratio of the EC50 value of adenosine divided by that of the adenosine analogue. A common reference compound on which to base molar potency ratios was needed to facilitate comparison of activities at A1 and A2 receptors. Adenosine itself cannot be used as a reference in the A1 binding assay since treatment of the membranes with adenosine deaminase is essential. […] Thus, MeAdo was used as a suitable reference compound.

Water solubility = assay type: physicochemical
[2] = target: T2, A2-adenosine receptor (adenylate cyclase, human platelet membranes) (Homo sapiens, UniProt P29274); experiment: Stimulation of adenylate cyclase in human platelet membranes; assay type: biochemical; conditions: human platelet membranes; read-out: IC50 (printed lC50), stimulation of adenylate cyclase
T2 construct: stimulation of adenylate cyclase in human platelet membranes; from tissue; host or cells: human platelet membranes
T2 sequence (P29274 whole entry): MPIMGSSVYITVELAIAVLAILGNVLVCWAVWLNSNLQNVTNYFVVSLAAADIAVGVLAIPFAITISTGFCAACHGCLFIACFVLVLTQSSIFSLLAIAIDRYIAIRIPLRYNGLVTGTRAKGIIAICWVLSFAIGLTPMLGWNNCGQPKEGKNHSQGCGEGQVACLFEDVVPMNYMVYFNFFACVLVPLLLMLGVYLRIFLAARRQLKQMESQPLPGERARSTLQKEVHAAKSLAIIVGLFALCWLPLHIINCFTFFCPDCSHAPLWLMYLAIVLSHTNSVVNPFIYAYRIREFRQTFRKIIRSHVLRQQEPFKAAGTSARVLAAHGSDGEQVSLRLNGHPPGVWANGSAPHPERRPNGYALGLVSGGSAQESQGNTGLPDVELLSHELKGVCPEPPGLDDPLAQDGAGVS

[3] = target: T3, Coronary A2-Adenosine Receptor (Canis lupus familiaris, UniProt P11617); experiment: Coronary vasoactivity in the anesthetized, open-chest dog (intracoronary infusion; MPR from EC50); assay type: in vivo
T3 construct: The assay of coronary vasoactivity in the anesthetized, open-chest dog; from tissue; host or cells: coronary vessels in situ, anesthetized open-chest dog
T3 sequence (P11617 whole entry, the tested form may be a part): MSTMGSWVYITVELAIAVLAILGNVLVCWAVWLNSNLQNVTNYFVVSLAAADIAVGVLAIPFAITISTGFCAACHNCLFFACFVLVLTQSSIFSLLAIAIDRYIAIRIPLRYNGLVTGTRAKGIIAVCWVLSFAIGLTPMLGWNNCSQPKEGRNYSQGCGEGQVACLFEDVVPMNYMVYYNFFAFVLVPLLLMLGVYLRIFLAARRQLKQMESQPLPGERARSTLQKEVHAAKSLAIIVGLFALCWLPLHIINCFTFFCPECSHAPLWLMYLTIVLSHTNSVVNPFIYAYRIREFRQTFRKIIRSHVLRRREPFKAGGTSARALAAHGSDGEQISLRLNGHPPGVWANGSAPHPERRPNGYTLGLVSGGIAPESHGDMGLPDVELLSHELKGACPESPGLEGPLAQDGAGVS
Description: as §1, §2
The assay of coronary vasoactivity in the anesthetized, open-chest dog, is described by Kusachi et al, J. Med. Chem., in press, and Olsson, et al, J. Circ. […] The assay estimates an EC-50, the concentration of analogue which produces a half maximum change in coronary conductance (reciprocal resistance). To reduce between-animal variability activity is expressed as a molar potency ratio (MPR) the value of the EC-50 of adenosine divided by that of the analogue. Owing to the low water solubility of some of the analogues, solutions for intracoronary infusion were prepared by diluting stock solutions in dimethyl sulfoxide. In such instances, solutions of adenosine used to establish a standard of potency also contained dimethyl sulfoxide. […]

A1 Receptor MPR Relative to MeAdo [1]: 3.3 | water solubility (in words) (Water solubility): practically insoluble in water | Onset of Action ([3]; coronary vasodilation, intracoronary infusion): 20 to 30 s | A2 versus A1 receptor selectivity (in words) ([3]; dog coronary A2 versus rat brain A1): highly divergent at A1 and A2 receptors | Duration of Vasodilation ([3]; intracoronary infusion): > 1 h | duration of vasodilation (in words) ([3]; intracoronary infusion): often lasted for an hour or more | A2 Receptor MPR Relative to Ado ([3]; molar potency ratio: EC50 of adenosine divided by that of the analogue, coronary, dog): 10.2 ± 7.3 | A2/A1 potency ratio (MPR(A2)/MPR(A1)) ([3]; ratio of MPR (MeAdo) at dog coronary A2 receptor to MPR at rat brain A1 receptor): 61
SMILES: O=C(CCCC[C@@H]1SC[C@@H]2NC(=O)N[C@@H]21)NCCCCCC(=O)NCCNC(=O)Cc1ccc(NC(=O)Cc2ccc(Nc3ncnc4c3ncn4[C@@H]3O[C@H](CO)[C@@H](O)[C@H]3O)cc2)cc1 [Compound 19]
IC50 [2]: 2400 nM | coronary vasoactivity (in words) ([3]; intracoronary infusion, dog): most active analogue; also recorded: three most active analogues
